Laboratory results as given in article PMC5826112, “Intrapulmonary Pharmacokinetics of Relebactam, a Novel β-Lactamase Inhibitor, Dosed in Combination with Imipenem-Cilastatin in Healthy Subjects” (Antimicrobial Agents and Chemotherapy, 2018).
Where two headings read alike, the source gives them in different places.

Experiment: Intrapulmonary (ELF, AC) and plasma pharmacokinetics after multiple-dose IV relebactam with imipenem-cilastatin, bronchoscopy/BAL, noncompartmental analysis
Assay type: in vivo, human (healthy subjects)
Details: for t1/2 (terminal half-life) / half-life / AUC(0-inf) / Cmax / Tmax / AUC(0-t): mean profile; for half-life: read-out: t1/2 (terminal half-life) (converted); for Kp at 1 h: 1.0 h after last dose; for Kp at 3 h: 3.0 h after last dose; for AUC(0-inf): noncompartmental analysis; for AUC(0-t): read-out: AUC0–3
Procedure: Dosing and administration of imipenem-cilastatin were carried out in a manner consistent with the recommended labeled posology. BAL fluid specimens were obtained during bronchoscopy for the determination of the relebactam and imipenem concentrations in the ELF and AC. Four aliquots of normal saline (50 ml each) were sequentially instilled and aspirated after each instillation. The first aspirate was discarded, and the remaining aspirates were pooled and used to obtain urea and drug level measurements. Aliquots were obtained for cell count/differential, and the remainder of the pooled aspirates was centrifuged. The liquid aspirate and cell pellet were separated and stored at −70°C. The supernatant was sent for urea and drug level measurements. Blood samples were collected prior to the first and fifth doses of study drug for the determination of relebactam and imipenem plasma concentrations. Blood samples were also collected during the bronchoscopy/BAL procedure for the determination of relebactam, imipenem, and urea concentrations. Relebactam and imipenem levels in plasma, pulmonary ELF, and AC were measured simultaneously via acetonitrile protein precipitation and hydrophilic interaction liquid chromatography (HILIC) with detection via liquid chromatography-tandem mass spectrometry (LC-MS/MS). The system consisted of a Waters Acquity ultraperformance liquid chromatograph (Waters Corp., Milford, MA) and an API 4000 or 5000 triple-quadrupole tandem mass spectrometer (Sciex, Framingham, MA) equipped with a turbo-ion spray interface and operated in the positive ionization mode. The multiple reaction monitoring (MRM) transitions monitored were m/z 349 → 269 for relebactam, m/z 300 → 98 for imipenem, and m/z 354 → 274 and m/z 307 → 98 for their respective internal standards. […] The ELF volumes recovered by BAL were determined by using urea as an endogenous marker to provide a dilution ratio by measurement of urea concentrations in the BAL fluid and serum ([33]). […] The mean value for each time point was used to conduct the noncompartmental analysis using Phoenix (version 6.3) software (Pharsight Corporation, Mountain View, CA) and to calculate the values of the PK parameters on the basis of the mean profile in each matrix.

[1] = both sexes, human, AC/plasma, intravenous, same regimen, n=4, read-out: AC/plasma concn GMR (90% CI)
[2] = both sexes, human, ELF/plasma, intravenous, same regimen, n=4, read-out: ELF/plasma concn GMR (90% CI)
[3] = both sexes, human, intravenous, AC, same regimen
[4] = both sexes, human, intravenous, ELF, same regimen
[5] = both sexes, human, intravenous, plasma, same regimen

## O=C(NC1CCNCC1)[C@@H]1CC[C@@H]2CN1C(=O)N2OS(=O)(=O)O [relebactam]
AC, same regimen
  t1/2 (terminal half-life): 2.25 h
ELF, same regimen
  t1/2 (terminal half-life): 1.29 h
At the Tmax of imipenem (0.5 h), 90% CI 45%, 49%
  GMR for the relebactam concentration versus the imipenem concentration in ELF: 47%
Both sexes, human, AC, intravenous, AC, same regimen
  half-life: 138 min
Both sexes, human, AC/plasma, intravenous, mean profiles, after adjustment for protein binding, read-out: relative exposure (AUC0–∞) in AC versus plasma
  Kp: 0.36
Both sexes, human, AC/plasma, intravenous, same regimen, 0.5 to 3 h after last dose, read-out: GMRs for AC/plasma concentrations, range across time points
  Kp: 0.14 to 0.51
Both sexes, human, AC/plasma, intravenous, same regimen, 0.5 h after last dose, n=4, read-out: AC/plasma concn GMR (90% CI)
  Kp at 0.5 h: 0.14
[1]
  Kp at 1 h: 0.25
  Kp at 3 h: 0.51
Both sexes, human, AC/plasma, intravenous, same regimen, 1.5 h after last dose, n=4, read-out: AC/plasma concn GMR (90% CI)
  Kp at 1.5 h: 0.38
Both sexes, human, ELF, intravenous, ELF, same regimen
  half-life: 78 min
Both sexes, human, ELF, intravenous, same regimen, 0.5 h after last dose, n=4, read-out: concn in ELF, GM
  concentration at 0.5 h: 14.9 µM
Both sexes, human, ELF, intravenous, same regimen, 1 h after last dose, n=4, read-out: concn in ELF, GM
  concentration at 1 h: 10.9 µM
Both sexes, human, ELF, intravenous, same regimen, 1.5 h after last dose, n=4, read-out: concn in ELF, GM
  concentration at 1.5 h: 9.49 µM
Both sexes, human, ELF, intravenous, same regimen, 3 h after last dose, n=4, read-out: concn in ELF, GM
  concentration at 3 h: 4.27 µM
Both sexes, human, ELF/plasma, intravenous, calculated as 100 · ELF AUC0–∞/plasma AUC0–∞/0.8, adjusted for protein binding (80% unbound in plasma, 100% free in ELF), read-out: Adjusted ELF/plasma AUC0–∞ ratio
  Kp: 0.54
Both sexes, human, ELF/plasma, intravenous, calculated as 100 · ELF AUC0–∞/plasma AUC0–∞, mean profiles, read-out: ELF/plasma AUC0–∞ ratio
  Kp: 0.43
Both sexes, human, ELF/plasma, intravenous, same regimen, 0.5 to 3 h after last dose, read-out: GMRs for ELF/plasma concentrations, range across time points
  Kp: 0.32 to 0.51
[2]
  Kp at 1 h: 0.35
  Kp at 3 h: 0.46
Both sexes, human, ELF/plasma, intravenous, same regimen, 1.5 h after last dose, n=4, read-out: ELF/plasma concn GMR (90% CI)
  Kp at 1.5 h: 0.51
Both sexes, human, ELF/plasma, iv, healthy subjects, relebactam 250 mg with imipenem-cilastatin 500 mg IV every 6 h, 5 doses, 0.5 h after last dose, n=4, read-out: ELF/plasma concn GMR (90% CI)
  Kp at 0.5 h: 0.32
[3]
  AUC(0-inf): 23.6 µM·h
  Cmax: 7.81 µM
  Tmax: 60 min
  AUC(0-t): 12.8 µM·h
[4]
  AUC(0-inf): 34.9 µM·h
  Cmax: 15.3 µM
  Tmax: 30 min
  AUC(0-t): 26.7 µM·h
[5]
  AUC(0-inf): 81.2 µM·h
  Cmax: 47.9 µM
  Tmax: 30 min
  AUC(0-t): 64.7 µM·h
Both sexes, human, plasma, intravenous, plasma, same regimen
  half-life: 72 min
Calculated as 100 · ELF AUC0–∞/plasma AUC0–∞/0.8, adjusted for protein binding (80% unbound in plasma, 100% free in ELF)
  Adjusted ELF/plasma AUC0–∞ ratio: 53.7%
plasma, same regimen
  t1/2 (terminal half-life): 1.24 h
Same regimen, 0.5 h after last dose
  Relebactam/imipenem concn ratio in ELF, GMR: 0.47
Same regimen, 1 h after last dose
  Relebactam/imipenem concn ratio in ELF, GMR: 0.54
Same regimen, 1.5 h after last dose
  Relebactam/imipenem concn ratio in ELF, GMR: 0.58
Same regimen, 3 h after last dose
  Relebactam/imipenem concn ratio in ELF, GMR: 0.71
